Literature values as cited in patent US20060014732A1, “Use of targeted oxidative therapeutic formulation in treatment of burns” (priority 2004, published 2006).

Experiments:
[1] = system: multiple-drug resistant strain of Staphylococcus aureus; details: growing culture of S. aureus, 8 hours, with or without illumination
E. coli = details: increasing concentration of peroxide ex-vivo in rabbit or human blood
[2] = system: peroxide-sensitive E. coli; details: infused into the blood

For `CC1=C(CCC(=O)O)c2cc3nc(cc4[nH]c(cc4C)cc4[nH]c(cc1n2)cc4C)C(C)=C3CCC(=O)O` [deuteroporphyrin], the “bactericidal effect in culture” value [1] is given as “strongly bactericidal only after photosensitization”.
In the case of `OO` [hydrogen peroxide, Hydrogen peroxide], the direct bactericidal activity (E. coli) is listed as “no evidence of direct bactericidal activity” and the bactericidal effect [2] is listed as “no bactericidal effect”.
For hemin, the “bactericidal effect in culture” value [1] is given as “moderately bactericidal but light independent”.
